Data taken from ChEMBL document CHEMBL1135808, “A new type of mixed anhydride and its applications to the synthesis of 7-substituted 8-chloro-5,5-dioxoimidazo[1,2-b][1,4,2]benzodithiazines with in vitro antitumor activity” (2002).

How the values were obtained:
NCI-H322M [1] = experiment: In vitro total growth inhibition against non-small-cell lung cancer NCI-H322M cell lines was reported.; format: functional; conditions: Homo sapiens, read-out: Log TGI (converted)
OVCAR-4 = experiment: In vitro total growth inhibition against ovarian cancer OVCAR-4 cell lines was reported.; format: functional; conditions: Homo sapiens, read-out: Log TGI (converted)
OVCAR-5 = experiment: In vitro growth inhibition against ovarian cancer OVCAR-5 cell line was reported.; format: functional; conditions: Homo sapiens
DU-145 = experiment: In vitro total growth inhibition against prostate cancer […] cell lines was reported.; format: functional; conditions: Homo sapiens, read-out: Log TGI (converted)
ACHN = experiment: In vitro total growth inhibition against renal cancer ACHN cell lines was reported.; format: functional; conditions: Homo sapiens, read-out: Log TGI (converted)
CAKI-1 = experiment: In vitro total growth inhibition against renal cancer CAKI-1cell lines was reported.; format: functional; conditions: Homo sapiens, read-out: Log TGI (converted)
786-0 [2] = experiment: In vitro growth inhibition against renal cancer […] cell line was reported.; format: functional; conditions: Homo sapiens
786-0 [3] = experiment: In vitro total growth inhibition against renal cancer […] cell lines was reported.; format: functional; conditions: Homo sapiens, read-out: Log TGI (converted)
A498 = experiment: In vitro growth inhibition against renal cancer A498 cell line was reported.; format: functional; conditions: Homo sapiens
RPMI-8226 = experiment: Log of molar concentration leading to 50% cell death against leukemia […] cell line was reported; format: functional; conditions: Homo sapiens, read-out: Log LC50 (the source's name) (converted)
KM12 = experiment: Log of molar concentration leading to 50% cell death against colon cancer KM12 cell line was reported; format: functional; conditions: Homo sapiens, read-out: Log LC50 (the source's name) (converted)
MCF7 = experiment: Log of molar concentration leading to 50% cell death against breast cancer MCF 7 cell line was reported; format: functional; conditions: Homo sapiens, read-out: Log LC50 (the source's name) (converted)
M14 = experiment: In vitro total growth inhibition against melanoma M14 cell lines was reported.; format: functional; conditions: Homo sapiens, read-out: Log TGI (converted)
SK-MEL-2 = experiment: Log of molar concentration leading to 50% cell death against melanoma SK-MEL-2 cell line was reported; format: functional; conditions: Homo sapiens, read-out: Log LC50 (the source's name) (converted)
SK-MEL-28 [4] = experiment: Log of molar concentration leading to 50% cell death against melanoma SK-MEL-28 cell line was reported; format: functional; conditions: Homo sapiens, read-out: Log LC50 (the source's name) (converted)
SK-MEL-28 [5] = experiment: In vitro total growth inhibition against melanoma SK-MEL-28 cell lines was reported.; format: functional; conditions: Homo sapiens, read-out: Log TGI (converted)
SK-MEL-5 = experiment: In vitro total growth inhibition against melanoma SK-MEL-5 cell lines was reported.; format: functional; conditions: Homo sapiens, read-out: Log TGI (converted)
UACC-257 [6] = experiment: Log of molar concentration leading to 50% cell death against melanoma UACC-257 cell line was reported; format: functional; conditions: Homo sapiens, read-out: Log LC50 (the source's name) (converted)
PC-3 [7] = experiment: Log of molar concentration leading to 50% cell death against prostate cancer PC-3 cell line was reported; format: functional; conditions: Homo sapiens, read-out: Log LC50 (the source's name) (converted)
UACC-257 [8] = experiment: In vitro total growth inhibition against melanoma UACC-257 cell lines was reported.; format: functional; conditions: Homo sapiens, read-out: Log TGI (converted)
IGROV-1 [9] = experiment: Log of molar concentration leading to 50% cell death against ovarian cancer IGROV1 cell line was reported; format: functional; conditions: Homo sapiens, read-out: Log LC50 (the source's name) (converted)
A549 = experiment: In vitro growth inhibition against non-small-cell lung cancer A 549/ATCC cell line was reported.; format: functional; conditions: Homo sapiens
NCI-H522 = experiment: In vitro growth inhibition against non-small-cell lung cancer […] cell line was reported.; format: functional; conditions: Homo sapiens
NCI-H23 = experiment: In vitro growth inhibition against non-small-cell lung cancer NCI-H23 cell line was reported.; format: functional; conditions: Homo sapiens
NCI-H322M [10] = experiment: In vitro growth inhibition against non-small-cell lung cancer […] cell line was reported.; format: functional; conditions: Homo sapiens
RXF 393 = experiment: Log of molar concentration leading to 50% cell death against renal cancer RXF 393 cell line was reported; format: functional; conditions: Homo sapiens, read-out: Log LC50 (the source's name) (converted)
UACC-62 = experiment: Log of molar concentration leading to 50% cell death against melanoma UACC-62 cell line was reported; format: functional; conditions: Homo sapiens, read-out: Log LC50 (the source's name) (converted)
IGROV-1 [11] = experiment: In vitro growth inhibition against ovarian cancer IGROV1 cell line was reported.; format: functional; conditions: Homo sapiens
PC-3 [12] = experiment: In vitro growth inhibition against prostate cancer PC-3 cell line was reported.; format: functional; conditions: Homo sapiens
MDA-MB-435 = experiment: In vitro total growth inhibition against breast cancer MDA-MB-435 cell lines was reported.; conditions: Homo sapiens, read-out: Log TGI (converted)

Cc1ccc2cccc(NC(=O)c3cc4c(cc3Cl)Sc3nccn3S4(=O)=O)c2n1
TGI (NCI-H322M [1]): 24.5 µM | TGI (OVCAR-4): 24.5 µM | GI50 (OVCAR-5): 16.2 µM | TGI (DU-145): 17.8 µM | TGI (ACHN): 33.9 µM | TGI (CAKI-1): 63.1 µM | GI50 (786-0 [2]): 16.2 µM | TGI (786-0 [3]): 38 µM | GI50 (A498): 16.2 µM | CC50 (RPMI-8226): 8.51 µM | CC50 (KM12): 43.7 µM | CC50 (MCF7): 38.9 µM | TGI (M14): 22.9 µM | CC50 (SK-MEL-2): 77.6 µM | CC50 (SK-MEL-28 [4]): 75.9 µM | TGI (SK-MEL-28 [5]): 26.9 µM | TGI (SK-MEL-5): 23.4 µM | CC50 (UACC-257 [6]): 51.3 µM | CC50 (PC-3 [7]): 32.4 µM | TGI (UACC-257 [8]): 26.9 µM | CC50 (IGROV-1 [9]): 23.4 µM | GI50 (A549): 12.3 µM | GI50 (NCI-H522): 10.5 µM | GI50 (NCI-H23): 13.8 µM | GI50 (NCI-H322M [10]): 12 µM | CC50 (RXF 393): 64.6 µM | CC50 (UACC-62): 67.6 µM | GI50 (IGROV-1 [11]): 3.24 µM | GI50 (PC-3 [12]): 2.69 µM | TGI (MDA-MB-435): 22.9 µM
